Experimental data published in publication PMC3351391, “Inhibition Mechanism and Model of an Angiotensin I-Converting Enzyme (ACE)-Inhibitory Hexapeptide from Yeast (Saccharomyces cerevisiae)” (PLoS ONE, 2012).
“Also recorded” adds a separate entry of the source. No end group written: not given here.

Key:
ACE [1] = details: cited from earlier work; for mode of ACE inhibition (literature): compete with the substrate for binding to the active site
Description: In this study, we investigated the inhibition mechanism of the hexapeptide on the basis of its sequence to provide a reference for the design of drugs that target such enzymes as ACE. || To determine the inhibitory mechanism, Lineweaver-Burk plots were determined for the ACE-inhibitory peptide from yeast (TPTQQS). […] Thus, the peptide can combine with the ACE molecule to produce a dead-end complex, regardless of whether a substrate molecule is bound or not. The complex between ACE and TPTQQS can prevent the formation of the reaction product, HA. […] However, the amino acid sequence of this peptide is not in accordance with the results of structure-activity correlation studies on ACE-inhibitory peptides. […] In the present study, we demonstr ...

ACE [2] = assay: Assay of ACE-inhibitory activity (HPLC, hippuric acid from HHL); assay type: biochemical; details: peptide 0.25 mmol/L (Fig. 4); HHL substrate, 0.1 mol/L Na-borate buffer pH 8.3; 5 min pre-incubation, 1 h at 37°C; RP-HPLC of HA at 228 nm
Description: (§1) The determination of ACE-inhibitory activity was performed using a High Performance Liquid Chromatography (HPLC) method, modified from a spectrophotometric method. HHL (Sigma, USA) was dissolved in 0.1 mol/L Na-borate buffer (pH 8.3) containing 1.55 mmol/L NaCl. ACE (Sigma, USA) was dissolved in the same buffer at a concentration of 0.2 U/mL. A mixture containing 10 µL of inhibitor and 5 µL of ACE solution was incubated at 37°C for 5 min, 50 µL of HHL solution was added, and the solution was incubated for 1 h. The reaction was stopped by adding 100 µL of 0.1% trifluoroacetic acid (TFA) (Sigma, USA). The amount of hippuric acid (HA) yielded by ACE catalysis was measured by RP-HPLC (GX-281, Gilson, France) with an octadecylsilyl (ODS) column (4.6 mm×250 mm, 5 µm, Agilent, USA). The mobile phase was 60% methanol (V/V) containing 0.1% TFA at a flow rate of 0.8 mL/min. The effluent was monitored at 228 nm. The ACE-inhibitory activity was calculated using Equation (1) as follows: [drawing 1] (1) where A is the content of HA generated in the presence of an ACE inhibitor, B is the content of HA generated without an ACE inhibitor, and C is the content of HA generated without ACE.

ACE [3] = target: T1, ACE (Oryctolagus cuniculus, UniProt P12822); assay: ITC titration of HHL into ACE in presence of inhibitor; assay type: binding; details: 0.024 µmol/L ACE and 0.13 µmol/L TPTQQS titrated with 1.55 mmol/L HHL; 37°C; pH 8.3
T1 construct: purchased Sigma, USA
T1 sequence (P12822 34-1310): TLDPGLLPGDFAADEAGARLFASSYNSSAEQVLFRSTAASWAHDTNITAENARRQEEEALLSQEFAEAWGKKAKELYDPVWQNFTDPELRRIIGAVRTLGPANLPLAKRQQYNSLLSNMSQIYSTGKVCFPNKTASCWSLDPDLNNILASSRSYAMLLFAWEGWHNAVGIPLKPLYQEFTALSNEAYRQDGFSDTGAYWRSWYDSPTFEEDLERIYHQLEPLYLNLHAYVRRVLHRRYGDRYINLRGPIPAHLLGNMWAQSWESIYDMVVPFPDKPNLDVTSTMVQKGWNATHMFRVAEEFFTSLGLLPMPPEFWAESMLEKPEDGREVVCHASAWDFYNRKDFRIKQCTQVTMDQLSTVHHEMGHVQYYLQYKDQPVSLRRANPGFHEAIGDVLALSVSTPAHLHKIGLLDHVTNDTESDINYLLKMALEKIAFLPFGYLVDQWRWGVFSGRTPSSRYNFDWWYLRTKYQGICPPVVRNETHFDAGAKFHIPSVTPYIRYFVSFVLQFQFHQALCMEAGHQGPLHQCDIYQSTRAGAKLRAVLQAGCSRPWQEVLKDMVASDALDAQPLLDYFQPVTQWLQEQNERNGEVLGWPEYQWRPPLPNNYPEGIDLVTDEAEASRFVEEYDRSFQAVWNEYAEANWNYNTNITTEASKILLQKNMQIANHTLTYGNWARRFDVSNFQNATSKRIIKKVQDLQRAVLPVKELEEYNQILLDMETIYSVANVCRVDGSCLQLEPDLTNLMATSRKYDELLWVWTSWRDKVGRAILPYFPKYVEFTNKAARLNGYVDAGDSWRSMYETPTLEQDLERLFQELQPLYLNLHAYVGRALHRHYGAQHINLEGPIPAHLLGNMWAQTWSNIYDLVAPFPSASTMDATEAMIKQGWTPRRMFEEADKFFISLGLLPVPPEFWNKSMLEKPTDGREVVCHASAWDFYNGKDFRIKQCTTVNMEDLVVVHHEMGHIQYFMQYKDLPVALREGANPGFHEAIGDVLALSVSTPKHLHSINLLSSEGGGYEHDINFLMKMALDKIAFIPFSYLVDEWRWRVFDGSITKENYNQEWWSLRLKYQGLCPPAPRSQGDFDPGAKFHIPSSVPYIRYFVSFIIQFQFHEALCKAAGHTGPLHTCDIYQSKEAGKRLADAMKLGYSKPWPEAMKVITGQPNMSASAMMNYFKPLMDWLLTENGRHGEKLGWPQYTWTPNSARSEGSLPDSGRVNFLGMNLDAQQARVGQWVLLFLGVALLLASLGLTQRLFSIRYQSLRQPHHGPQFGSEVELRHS
Description: The isothermal titration calorimetry (ITC) experiments were carried out using a Nano ITC Low Volume System (TA Instruments-Waters LLC., USA) with a 190 µL cell. All of the experiments were performed at 37°C. ACE was prepared by diluting the stock solution in a buffer of the appropriate pH; the substrate was dissolved in the same buffer as the enzyme. In a control experiment, the ITC cell was filled with 0.024 µmol/L ACE (250 µL), and the ACE solution was titrated with 1.55 mmol/L HHL. The injection volume was […], and the time between two injections was 300 s during which the substrate was completely hydrolyzed. In the inhibition experiment, the ITC cell was filled with 0.024 µmol/L ACE and 0.13 µmol/L TPTQQS (250 µL), and the solution was titrated with 1.55 mmol/L HHL. The titration conditions were the same as those for the control experiment.

ACE [4] = assay: Inhibition kinetics of ACE (Lineweaver-Burk plots, HHL substrate); assay type: biochemical; details: 100 and 200 µg/mL inhibitor; HHL 0.78, 1.55, 3.10 mM; Na-borate pH 8.3; 37°C
Description: as §1, with “The mobile phase was 60% methanol (V/V) containing 0.1% TFA at a flow rate of 0.8 mL/min.” left out, “(1) where A is the content of HA generated in the presence of an ACE inhibitor, B is the content of HA generated without an ACE inhibitor, and C is the content of HA generated without ACE.” left out
Inhibition kinetics of TPTQQS- Various substrate (HHL) concentrations (0.78 mM, 1.55 mM, and 3.10 mM) were incubated with the ACE solution in the presence or absence of 100 µg/mL, of 200 µg/mL TPTQQS at 37°C. The ACE-inhibitory activity was determined as described as described in the “Assay of ACE-inhibitory activity". The kinetics of ACE in the presence of the inhibitory peptide was determined using Lineweaver-Burk plots.

For `C[C@H](CS)C(=O)N1CCC[C@H]1C(=O)O` [captopril], the “mode of ACE inhibition (literature)” value (ACE [1]) is listed as “Competitive inhibition”.
In the case of TPTQQS [TPTQQS], the inhibition rate (ACE [2]) is given as 72.55%, the “ACE-inhibitory activity (literature, in words)” value (ACE [1]; isolated from hydrolyzed yeast protein) is given as “effective ACE-inhibitory peptide; also recorded: highly active” and the “affinity of HHL for ACE in the presence of inhibitor, ITC” value (ACE [3]) is given as “the same as that in the control experiment”. For the same molecule, the “mode of ACE inhibition by ITC” value (ACE [3]) was “non-competitive” and the “mode of ACE inhibition (Lineweaver-Burk)” value (ACE [4]) was “non-competitive inhibitor”.
For `CCOC(=O)[C@H](CCc1ccccc1)N[C@@H](C)C(=O)N1CCC[C@H]1C(=O)O` [enalapril], the “mode of ACE inhibition (literature)” value (ACE [1]) is listed as “Competitive inhibition”.
In the case of `NCCCC[C@H](N[C@@H](CCc1ccccc1)C(=O)O)C(=O)N1CCC[C@H]1C(=O)O` [lisinopril], the “mode of ACE inhibition (literature)” value (ACE [1]) is listed as “Competitive inhibition”.
